From ChEMBL document CHEMBL1156958, “Effect of essential oils, such as raspberry ketone and its derivatives, on antiandrogenic activity based on in vitro reporter gene assay” (Bioorg Med Chem Lett, 2010)

Experiments:
[1] = system: Rattus norvegicus; test: Drug level in Wistar rat blood at 200 mg/kg; format: ADME, organism-based; set-up: dose 200 mg/kg; settings: in vivo
[2] = system: Rattus norvegicus; test: Drug level in Wistar rat blood at 10 g/kg; format: ADME, organism-based; settings: in vivo, 10000 mg/kg
[3] = target: T1, Androgen receptor (Homo sapiens, UniProt P10275); test: Antagonist activity at AR in human MDA-kb2 cells co-transfected with MMTV-luc assessed as decrease in DHT-induced luciferase activity by reporter gene assay; format: functional, cell-based
T1 sequence (P10275 whole entry): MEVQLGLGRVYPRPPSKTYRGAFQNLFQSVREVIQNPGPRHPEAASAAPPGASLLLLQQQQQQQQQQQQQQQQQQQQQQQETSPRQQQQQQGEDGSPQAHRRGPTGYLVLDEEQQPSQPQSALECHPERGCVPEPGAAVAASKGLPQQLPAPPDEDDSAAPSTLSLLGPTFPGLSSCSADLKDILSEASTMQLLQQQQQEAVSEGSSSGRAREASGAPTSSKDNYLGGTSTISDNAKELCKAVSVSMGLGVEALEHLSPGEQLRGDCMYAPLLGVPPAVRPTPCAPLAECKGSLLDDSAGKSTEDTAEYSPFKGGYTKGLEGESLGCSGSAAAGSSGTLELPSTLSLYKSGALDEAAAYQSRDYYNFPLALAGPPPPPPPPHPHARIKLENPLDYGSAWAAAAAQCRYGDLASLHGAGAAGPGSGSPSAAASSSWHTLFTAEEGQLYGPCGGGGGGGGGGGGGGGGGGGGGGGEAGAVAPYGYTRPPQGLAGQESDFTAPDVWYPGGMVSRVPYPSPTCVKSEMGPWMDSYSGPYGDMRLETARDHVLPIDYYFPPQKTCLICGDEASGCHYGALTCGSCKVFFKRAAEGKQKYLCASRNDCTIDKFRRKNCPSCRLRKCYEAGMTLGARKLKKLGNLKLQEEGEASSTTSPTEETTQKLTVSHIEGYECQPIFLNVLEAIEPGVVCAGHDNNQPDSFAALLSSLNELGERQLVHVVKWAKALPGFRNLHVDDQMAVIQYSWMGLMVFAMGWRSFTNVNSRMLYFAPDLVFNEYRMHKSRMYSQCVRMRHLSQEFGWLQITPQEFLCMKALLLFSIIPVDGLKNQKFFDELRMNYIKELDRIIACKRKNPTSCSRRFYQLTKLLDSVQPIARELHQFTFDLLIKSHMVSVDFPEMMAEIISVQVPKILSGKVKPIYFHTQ

CC(C)(C)CC(C)(C)c1ccc(O)cc1
Drug uptake [1]: 80 ng/mL

CC(=O)CCc1ccc(O)cc1 [RASPBERRYKETONE]
Drug uptake [2]: 4000 ng/mL

CC(=O)Cc1ccc(O)cc1
IC50 ([3]; read-out: IC50): 420 µM | IC50 ([3]; read-out: pIC50 (converted)): 417 µM

COc1cc(CCC(C)=O)ccc1O [ZINGERONE]
IC50 ([3]; read-out: IC50): 153 µM | IC50 ([3]; read-out: pIC50 (converted)): 151 µM
